This note sets out measurements from patent US20020183313A1, “1,4-benzodiazepinones and their uses as CCK antagonists” (Fujisawa Pharmaceutical Co., Ltd., priority 1996, published 2002).

Usually melting point stands for the temperature of the solid-liquid transition.

In the case of `Cc1cccc(NC(=O)NC2N=C(CC3CCCCC3)c3ccccc3N(CC(=O)N3CC4CCC(CC4)C3)C2=O)c1` (racemic), the melting point was 164 to 166 °C.

`Cc1cccc2c1N(CC(=O)c1ccccc1OCC(=O)O)C(=O)C(NC(=O)Nc1cccc(-c3nnn[nH]3)c1)N=C2c1ccccc1F` (racemic) returned a melting point of 109.6 to 113 °C.

As to `Cc1cccc2c1N(CC(=O)N1CC3CCC(CC3)C1)C(=O)C(NC(=O)Nc1cccc(C=O)c1)N=C2c1ccccc1F` (racemic), the melting point was 236.8 to 242.1 °C.

For the compound `Cc1cccc2c1N(CC(=O)N1CC3CCC(CC3)C1)C(=O)C(NC(=O)Nc1cccc(C=NO)c1)N=C2c1ccccc1F` (racemic), the melting point was in the range of 196 to 199 °C.

`Cc1cccc(NC(=O)NC2N=C(CN3CC4CCC(CC4)C3)c3cccc(C)c3N(C)C2=O)c1` (racemic): the melting point was in the range of 145.6 to 149.2 °C.

`Cc1cccc(NC(=O)NC2N=C(C3CC3)c3cccc(C)c3N(CC(=O)N3CC4CCC(CC4)C3)C2=O)c1` (racemic) gave a melting point of 172 to 174.4 °C.

For the compound `CCC1=NC(NC(=O)Nc2cccc(C)c2)C(=O)N(CC(=O)N2CC3CCC(CC3)C2)c2c(C)cccc21` (racemic), the melting point was 130.1 to 133 °C.

For the compound `CC1=NC(NC(=O)Nc2cccc(C)c2)C(=O)N(Cc2ncccc2C)c2ccccc21` (racemic) [8(1), N-[(3RS)-2,3-dihydro-5-methyl-1-(3-methylpyridin-2-yl)methyl-2-oxo-1H-1,4-benzodiazepin-3-yl]-N′-(3-methylphenyl)urea], the melting point was 225 to 229 °C.

Consider `CC(=O)c1sccc1CN1C(=O)C(NC(=O)Nc2cccc(C)c2)N=C(C)c2ccccc21` (racemic) [8(3), N-[(3RS)-1-(2-acetylthiophen-3-yl)methyl-2,3-dihydro-5-methyl-2-oxo-1H-1,4-benzodiazepin-3-yl]-N′-(3-methylphenyl)urea], for which the melting point was 215 to 219 °C.

In turn, `Cc1cccc(NC(=O)NC2N=C(CCC(C)C)c3ccccc3N(Cc3ncccc3C)C2=O)c1` (racemic) [9(1), N-[(3RS)-2,3-dihydro-5-(3-methylbutyl)-1-(3-methylpyridin-2-yl)methyl-2-oxo-1H-1,4-benzodiazepin-3-yl]-N′-(3-methylphenyl)urea] displayed a melting point of 151 to 154 °C.

As to `CC(=O)c1sccc1CN1C(=O)C(NC(=O)Nc2cccc(C)c2)N=C(CCC(C)C)c2ccccc21` (racemic) [9(2), N-[(3RS)-1-(2-acetylthiophen-3-yl)methyl-2,3-dihydro-5-(3-methylbutyl)-2-oxo-1H-1,4-benzodiazepin-3-yl]-N′-(3-methylphenyl)urea], the melting point lay within 190 to 195 °C.

For the compound `Cc1cccc2c1N(C)C(=O)C(NC(=O)Nc1cccc(-c3nnn[nH]3)c1)N=C2C1CCCCC1` (racemic) [17(1), N-[(3RS)-5-Cyclohexyl-2,3-dihydro-1,9-dimethyl-2-oxo-1H-1,4-benzodiazepin-3-yl]-N′-[3-(tetrazol-5-yl)phenyl]urea], the melting point fell in the range of 198.9 to 200.7 °C.

On to `Cc1ccccc1C(=O)CN1C(=O)C(NC(=O)Nc2cccc(-c3nnn[nH]3)c2)N=C(C2CCCCC2)c2cccc(C)c21` (racemic) [24(1), N-[(3RS)-5-Cyclohexyl-9-methyl-2,3-dihydro-1-(2-methylphenacyl)-2-oxo-1H-1,4-benzodiazepin-3-yl]-N′-[3-(tetrazol-5-yl)phenyl]urea], for which the melting point is 165 to 176.6 °C.

As for `Cc1ccccc1C(=O)CN1C(=O)C(NC(=O)c2cc3ccccc3[nH]2)N=C(C2CCCCC2)c2cccc(C)c21` (racemic) [24(2), (3RS)-5-Cyclohexyl-2,3-dihydro-3-(indol-2-yl)carbonylamino-9-methyl-1-(2-methylphenacyl)-1H-1,4-benzodiazepin-2-one], the melting point lay in the range of 126.7 to 145.2 °C.

In turn, `CC1=NC(NC(=O)Nc2cccc(C)c2)C(=O)N(CC(=O)N2CCC(N3CCCCC3)CC2)c2c(C)cccc21` (racemic) [48-3(1), N-[(3RS)-1-[4-(Piperidino)piperidin-1-yl]carbonylmethyl-5,9-dimethyl-2,3-dihydro-2-oxo-1H-1,4-benzodiazepin-3-yl]-N′-(3-methylphenyl)urea] showed a melting point of 214.5 to 217.3 °C.

`CC1=NC(NC(=O)Nc2cccc(C)c2)C(=O)N(CC(=O)N2CCC(O)(c3ccccc3)CC2)c2c(C)cccc21` (racemic) [48-3(6), N-[(3RS)-1-(4-Hydroxy-4-phenylpiperidin-1-yl)carbonylmethyl-5,9-dimethyl-2,3-dihydro-2-oxo-1H-1,4-benzodiazepin-3-yl]-N′-(3-methylphenyl)urea] displayed a melting point of 163.2 to 164.9 °C.

`CC1=NC(NC(=O)Nc2cccc(C)c2)C(=O)N(CC(=O)NC(C)(C)C)c2c(C)cccc21` (racemic) [48-3(11), N-[(3RS)-2,3-Dihydro-5,9-dimethyl-1-(N-tert-butylamino-carbonylmethyl)-2-oxo-1H-1,4-benzodiazepin-3-yl]-N′-(3-methylphenyl)urea] returned a melting point of 243.4 to 244.4 °C.

`CC1=NC(NC(=O)Nc2cccc(C)c2)C(=O)N(CC(=O)N2CCN(CCO)CC2)c2c(C)cccc21` (racemic) [48-3(14), N-[(3RS)-2,3-Dihydro-1-[4-(2-hydroxyethyl)piperazin-1-yl]carbonylmethyl-5,9-dimethyl-2-oxo-1H-1,4-benzodiazepin-3-yl]-N′-(3-methylphenyl)urea] came in with a melting point of 221.7 to 224.2 °C.

As to `CC1=NC(NC(=O)Nc2cccc(C)c2)C(=O)N(CC(=O)N(CC(C)C)CC(C)C)c2c(C)cccc21` (racemic) [48-3(15), N-[(3 RS)-2,3-Dihydro-1-(N,N-diisobutylamino)carbonylmethyl-5,9-dimethyl-2-oxo-1H-1,4-benzodiazepin-3-yl]-N′-(3-methylphenyl)urea], the melting point lay in the range of 226.9 to 228.1 °C.

`CC1=NC(NC(=O)Nc2cccc(C)c2)C(=O)N(CC(=O)N(CCO)CCO)c2c(C)cccc21` (racemic) [48-3(16), N-[(3RS)-2,3-Dihydro-1-(N,N-bis-(2-hydroxyethyl)amino)-carbonylmethyl-5,9-dimethyl-2-oxo-1H-1,4-benzodiazepin-3-yl]-N′-(3-methylphenyl)urea] gave a melting point of 160.5 to 161.1 °C.

As for `Cc1cccc(NC(=O)NC2N=C(CN(C)C)c3cccc(C)c3N(CC(=O)N3CCCCCCC3)C2=O)c1` (racemic) [71-3(1), N-[(3RS)-1-(azacyclooctan-1-yl)carbonylmethyl-2,3-dihydro-5-(N,N-dimethylamino)methyl-9-methyl-2-oxo-1H-1,4-benzodiazepin-3-yl]-N′-(3-methylphenyl)urea], the melting point was 147.9 to 149.1 °C.

Take `Cc1cccc(NC(=O)NC2N=C(C=O)c3cccc(C)c3N(CC(=O)N3CCCCCCC3)C2=O)c1` (racemic) [71-3(2), N-[(3RS)-1-(azacyclooctan-1-yl)carbonylmethyl-2,3-dihydro-5-formyl-9-methyl-2-oxo-1H-1,4-benzodiazepin-3-yl]-N′-(3-methylphenyl)urea]: the melting point lay within 137.9 to 141 °C.

`CCOC(=O)C=CC1=NC(NC(=O)Nc2cccc(C)c2)C(=O)N(CC(=O)N2CCCCCCC2)c2c(C)cccc21` (racemic) [75(1)-1, N-[(3RS)-1-(azacyclooctan-1-yl)carbonylmethyl-2,3-dihydro-5-((EZ)-2-(ethoxycarbonyl)ethenyl)-9-methyl-2-oxo-1H-1,4-benzodiazepin-3-yl]-N′-(3-methylphenyl)urea] showed a melting point of 175.2 to 177.7 °C.

In turn, `Cc1cccc(NC(=O)NC2N=C(C=CC(=O)O)c3cccc(C)c3N(CC(=O)N3CCCCCCC3)C2=O)c1` (racemic) [75(1)-2, N-[(3RS)-1-(azacyclooctan-1-yl)carbonylmethyl-2,3-dihydro-5-((EZ)-2-carboxylethenyl)-9-methyl-2-oxo-1H-1,4-benzodiazepin-3-yl]-N′-(3-methylphenyl)urea] showed a melting point of 129.3 to 134.1 °C.

With `CC(=O)c1sccc1CN1C(=O)C(NC(=O)Nc2cccc(C)c2)N=C(C(C)C)c2ccccc21` (racemic) [Example 2, N-[(3RS)-1-(2-acetylthiophen-3-yl)methyl-2,3-dihydro-5-isopropyl-2-oxo-1H-1,4-benzodiazepin-3-yl]-N′-(3-methylphenyl)urea], the melting point was 219 to 221 °C (dec.).

`CC(=O)c1sccc1CN1C(=O)C(NC(=O)Nc2cccc(C)c2)N=C(CC(C)C)c2ccccc21` (racemic) [Example 6(3), N-[(3RS)-2,3-dihydro-5-(2-methylpropyl)-1-(2-methylcarbonylthiophen-3-yl)methyl-2-oxo-1,4-benzodiazepin-3-yl]-N′-(3-methylphenyl)urea] registered a melting point of 215 to 218 °C.

In turn, `CC(=O)OCCN1C(=O)C(NC(=O)Nc2cccc(-c3nnn[nH]3)c2)N=C(C2CCCCC2)c2cccc(C)c21` (racemic) [Example 21-1, N-[(3RS)-1-(2-Acetoxyethyl)-5-cyclohexyl-2,3-dihydro-9-methyl-2-oxo-1H-1,4-benzodiazepin-3-yl]-N′-[3-(tetrazol-5-yl)phenyl]urea] gave a melting point of 165.2 to 168.4 °C.

In turn, `Cc1cccc2c1N(CCO)C(=O)C(NC(=O)Nc1cccc(-c3nnn[nH]3)c1)N=C2C1CCCCC1` (racemic) [Example 21-2, N-[(3RS)-5-Cyclohexyl-2,3-dihydro-1-(2-hydroxyethyl)-9-methyl-2-oxo-1H-1,4-benzodiazepin-3-yl]-N′-[3-(tetrazol-5-yl)phenyl]urea] showed a melting point of 223.5 to 224.2 °C.

For the compound `CC1=NC(NC(=O)Nc2cccc(C)c2)C(=O)N(CC(=O)c2ccccc2C)c2c(C)cccc21` (racemic) [Example 37, N-[(3RS)-2,3-Dihydro-5,9-dimethyl-1-(2-methylphenacyl)-2-oxo-1H-1,4-benzodiazepin-3-yl]-N′-(3-methylphenyl)urea], the melting point was in the range of 128.4 to 136.2 °C.

With `CC1=NC(NC(=O)Nc2cccc(C)c2)C(=O)N(CC(=O)C(C)(C)C)c2c(C)cccc21` (racemic) [Example 41, N-[(3RS)-2,3-Dihydro-5,9-dimethyl-1-tert-butylcarbonylmethyl-2-oxo-1H-1,4-benzodiazepin-3-yl]-N′-(3-methylphenyl)urea], the melting point lay within 179.6 to 181.2 °C.

`CCC(=O)CN1C(=O)C(NC(=O)Nc2cccc(C)c2)N=C(C)c2cccc(C)c21` (racemic) [Example 44, N-[(3RS)-2,3-Dihydro-1-ethylcarbonylmethyl-5,9-dimethyl-2-oxo-1H-1,4-benzodiazepin-3-yl]-N′-(3-methylphenyl)urea] had a melting point of 125.1 to 127.5 °C.
